According to article PMC7251871, “Construction of reporter gene assays using CWP and PDR mutant yeasts for enhanced detection of various sex steroids” (Genes and Environment, 2020):
Values joined by “and” are separate entries in the source; they are usually repeats but may differ in a detail not shown here. Equal entries are not always repeated. Where two headings read alike, the source gives them in different places.

What was measured:
human PR [1] = molecular target: T1, human PR (Homo sapiens, UniProt P06401); assay: PR antagonist yeast reporter gene assay (competition with PS at EC50); format: cell-based; conditions: strain cwp1Δpdr5Δ
T1 sequence (P06401 1-933): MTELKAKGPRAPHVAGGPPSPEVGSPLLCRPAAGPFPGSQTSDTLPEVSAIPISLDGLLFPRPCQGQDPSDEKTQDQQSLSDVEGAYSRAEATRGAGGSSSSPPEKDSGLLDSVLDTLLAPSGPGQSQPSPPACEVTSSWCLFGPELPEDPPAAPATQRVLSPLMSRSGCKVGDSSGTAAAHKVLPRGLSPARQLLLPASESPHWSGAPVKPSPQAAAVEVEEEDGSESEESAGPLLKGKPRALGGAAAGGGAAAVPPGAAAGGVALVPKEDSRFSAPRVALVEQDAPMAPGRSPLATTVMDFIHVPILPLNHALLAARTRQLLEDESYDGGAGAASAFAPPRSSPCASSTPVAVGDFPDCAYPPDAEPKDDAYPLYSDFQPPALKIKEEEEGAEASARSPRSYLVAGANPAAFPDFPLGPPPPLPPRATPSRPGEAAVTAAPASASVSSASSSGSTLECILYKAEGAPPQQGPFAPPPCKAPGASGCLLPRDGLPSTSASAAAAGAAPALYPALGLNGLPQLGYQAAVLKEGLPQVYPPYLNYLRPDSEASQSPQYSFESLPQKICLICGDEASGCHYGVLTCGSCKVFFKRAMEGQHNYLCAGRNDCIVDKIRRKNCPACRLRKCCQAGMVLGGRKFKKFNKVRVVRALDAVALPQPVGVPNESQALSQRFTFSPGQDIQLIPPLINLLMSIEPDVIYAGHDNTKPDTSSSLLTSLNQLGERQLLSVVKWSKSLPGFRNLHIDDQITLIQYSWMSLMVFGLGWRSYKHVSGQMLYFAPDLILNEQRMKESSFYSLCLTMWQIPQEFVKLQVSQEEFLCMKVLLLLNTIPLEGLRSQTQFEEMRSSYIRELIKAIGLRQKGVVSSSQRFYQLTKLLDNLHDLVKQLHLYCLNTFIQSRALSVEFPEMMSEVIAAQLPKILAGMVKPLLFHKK

human AR [2] = molecular target: T2, human AR (Homo sapiens, UniProt P10275); assay: AR agonist yeast lacZ reporter gene assay; format: cell-based
T2 sequence (P10275 1-920): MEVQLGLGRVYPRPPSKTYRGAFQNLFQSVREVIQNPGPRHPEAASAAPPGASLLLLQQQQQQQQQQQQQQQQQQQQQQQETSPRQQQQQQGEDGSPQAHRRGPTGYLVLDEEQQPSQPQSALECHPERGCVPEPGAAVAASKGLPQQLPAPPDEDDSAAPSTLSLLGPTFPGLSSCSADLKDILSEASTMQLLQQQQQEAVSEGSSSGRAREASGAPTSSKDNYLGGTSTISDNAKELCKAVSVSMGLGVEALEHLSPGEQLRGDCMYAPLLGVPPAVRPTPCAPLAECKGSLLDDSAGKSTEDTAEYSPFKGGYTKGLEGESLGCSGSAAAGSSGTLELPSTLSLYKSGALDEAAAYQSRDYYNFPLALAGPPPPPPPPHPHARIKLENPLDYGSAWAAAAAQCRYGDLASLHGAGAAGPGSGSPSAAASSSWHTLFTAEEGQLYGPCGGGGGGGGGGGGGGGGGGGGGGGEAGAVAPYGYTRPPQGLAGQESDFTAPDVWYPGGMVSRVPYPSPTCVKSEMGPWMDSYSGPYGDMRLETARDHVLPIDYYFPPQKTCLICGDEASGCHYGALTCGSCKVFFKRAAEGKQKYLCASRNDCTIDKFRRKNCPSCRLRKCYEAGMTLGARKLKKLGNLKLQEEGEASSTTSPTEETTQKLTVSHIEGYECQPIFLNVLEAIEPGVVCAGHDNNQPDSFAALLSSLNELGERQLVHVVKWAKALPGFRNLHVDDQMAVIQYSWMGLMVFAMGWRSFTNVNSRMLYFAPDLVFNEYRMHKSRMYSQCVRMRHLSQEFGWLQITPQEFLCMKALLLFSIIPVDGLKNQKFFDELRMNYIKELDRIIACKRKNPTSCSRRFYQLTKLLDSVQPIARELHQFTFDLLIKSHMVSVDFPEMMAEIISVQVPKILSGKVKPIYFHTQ

human PR [3] = molecular target: T1, human PR; assay: PR agonist yeast lacZ reporter gene assay; conditions: for EC50: EC50, agonist assay
human ERβ [4] = molecular target: T3, human ERβ (Homo sapiens, UniProt Q92731); assay: ERβ agonist yeast lacZ reporter gene assay; format: cell-based
T3 sequence (Q92731 whole entry): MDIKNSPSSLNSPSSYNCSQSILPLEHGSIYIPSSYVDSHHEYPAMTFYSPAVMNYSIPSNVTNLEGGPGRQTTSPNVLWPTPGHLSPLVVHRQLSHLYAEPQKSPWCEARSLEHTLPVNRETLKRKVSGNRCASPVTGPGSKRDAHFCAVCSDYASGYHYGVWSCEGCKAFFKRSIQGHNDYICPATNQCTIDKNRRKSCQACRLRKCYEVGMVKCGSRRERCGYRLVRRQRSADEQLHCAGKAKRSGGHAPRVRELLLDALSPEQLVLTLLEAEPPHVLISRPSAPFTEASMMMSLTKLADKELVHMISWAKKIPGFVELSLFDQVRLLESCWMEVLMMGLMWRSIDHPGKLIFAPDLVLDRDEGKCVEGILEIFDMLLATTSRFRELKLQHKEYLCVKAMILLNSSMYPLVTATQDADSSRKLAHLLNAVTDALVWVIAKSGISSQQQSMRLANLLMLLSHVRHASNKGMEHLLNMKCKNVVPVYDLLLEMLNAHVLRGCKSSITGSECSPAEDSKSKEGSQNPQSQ

human ERβ [5] = molecular target: T3, human ERβ; assay: ERβ antagonist yeast reporter gene assay (competition with E2 at EC50); conditions: co-exposure with E2; data not shown
human AR [6] = molecular target: T2, human AR; assay: AR antagonist yeast reporter gene assay (competition with testosterone at EC50); format: cell-based; conditions: with testosterone […] nM
human ERα = molecular target: T4, human ERα (Homo sapiens, UniProt P03372); assay: ERα agonist yeast lacZ reporter gene assay; format: cell-based; conditions: strain cwp1Δcwp2Δ
T4 sequence (P03372 1-595): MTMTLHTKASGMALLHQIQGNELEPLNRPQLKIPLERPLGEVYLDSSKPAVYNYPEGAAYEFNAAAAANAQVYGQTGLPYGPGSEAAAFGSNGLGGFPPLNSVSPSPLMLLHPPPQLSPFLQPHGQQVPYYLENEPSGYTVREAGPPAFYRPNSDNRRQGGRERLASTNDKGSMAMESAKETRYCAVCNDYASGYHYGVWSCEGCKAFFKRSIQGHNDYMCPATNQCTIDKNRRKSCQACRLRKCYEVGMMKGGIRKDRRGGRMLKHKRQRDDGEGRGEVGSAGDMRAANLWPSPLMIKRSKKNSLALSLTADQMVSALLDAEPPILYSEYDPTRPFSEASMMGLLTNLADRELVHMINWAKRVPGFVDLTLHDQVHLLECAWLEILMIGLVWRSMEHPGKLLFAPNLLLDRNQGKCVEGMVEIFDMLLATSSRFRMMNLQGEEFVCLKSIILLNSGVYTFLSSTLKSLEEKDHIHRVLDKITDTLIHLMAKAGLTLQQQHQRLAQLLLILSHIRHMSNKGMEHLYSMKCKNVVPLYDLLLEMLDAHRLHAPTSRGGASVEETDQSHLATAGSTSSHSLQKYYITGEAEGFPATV

[7] = agonist assay, strain W303a, read-out: EC50
[8] = agonist assay, strain cwp1Δcwp2Δ, read-out: EC50

## C[C@]12CCC(=O)C=C1[C@@H]1C[C@@H]1[C@H]1[C@@H]3[C@@H]4C[C@@H]4[C@@]4(CCC(=O)O4)[C@@]3(C)CC[C@@H]12 [DRSP, drospirenone]
CYC yeast strains
  constitutive expression of β-gal in reference CYC strains: Neither DNG nor DRSP inhibited

## CC(=O)S[C@@H]1CC2=CC(=O)CC[C@]2(C)[C@H]2CC[C@@]3(C)[C@@H](CC[C@@]34CCC(=O)O4)[C@H]12 [Spi, spironolactone]
Human PR [1]
  Maximum inhibition: 34.0%
CYC yeast strains
  constitutive expression of β-gal in reference CYC strains: not affected

## C[C@]12CC[C@@H]3c4ccc(O)cc4CC[C@H]3[C@@H]1CCC2=O [E1, estrone]
Human AR [2]; EC50
  EC50: 900 nM and 860 nM and 96 nM

## C[C@]12CC[C@@H]3c4ccc(O)cc4C[C@@H](CCCCCCCCC[S+]([O-])CCCC(F)(F)C(F)(F)F)[C@H]3[C@@H]1CC[C@@H]2O (some centres unmarked) [ICI, ICI 182, 780]
CYC yeast strains
  constitutive β-gal expression in control CYC strains: not repressed

## CC(=O)[C@H]1CC[C@H]2[C@@H]3CCC4=CC(=O)CC[C@]4(C)[C@H]3CC[C@]12C [PS, progesterone]
Human PR [3]; strain W303a
  Detection limit: 10 µM
Human PR [3]; strain cwp1Δcwp2Δ
  Detection limit: 0.01 µM
Human PR [3]; strain cwp1Δpdr5Δ
  Detection limit: 0.01 µM

## C[C@]12C[C@H](O)[C@H]3[C@@H](CCC4=CC(=O)CC[C@@]43C)[C@@H]1CC[C@@H]2C(=O)CO [CS, corticosterone]
Human PR [3]; strain cwp1Δcwp2Δ
  EC50: 20100 nM
Human PR [3]; strain cwp1Δpdr5Δ
  EC50: 18300 nM

## Cc1c(-c2ccc(O)cc2)nn(-c2ccc(O)cc2)c1-c1ccc(OCCN2CCCCC2)cc1.Cl.Cl [MPP, methyl-piperidino-pyrazoledihydrochloride hydrate]
Human ERβ [4]; [7]
  EC50: 19200 nM
Human ERβ [4]; [8]
  EC50: 2730 nM
Human ERβ [5]
  antagonistic activity: undetectable

## CC/C(=C(\c1ccccc1)c1ccc(OCCN(C)C)cc1)c1ccccc1 [Tam, tamoxifen]
CYC yeast strains; 100 μM
  constitutive β-gal expression in control CYC yeasts: less than 60%

## C[C@]12CC[C@H]3[C@@H](CCC4=CC(=O)CC[C@@]43C)[C@@H]1CC[C@@H]2O [TS, Testosterone]
Human PR [3]; strain cwp1Δcwp2Δ
  EC50: 29000 nM
Human PR [3]; strain cwp1Δpdr5Δ
  EC50: 31000 nM
Human ERβ [4]; EC50, agonist assay, strain cwp1Δcwp2Δ
  EC50: 870 nM

## C[C@]12CC[C@@H]3c4ccc(O)cc4CC[C@H]3[C@@H]1C[C@@H](O)[C@@H]2O [E3, estriol]
Human ERβ [4]; [7]
  EC50: 34 nM
Human ERβ [4]; [8]
  EC50: 1.22 nM
Human ERβ [4]; strain W303a
  Detection limit: 0.1 µM
Human ERβ [4]; strain cwp1Δcwp2Δ
  Detection limit: 10^−4 μM

## CC#C[C@]1(O)CC[C@H]2[C@@H]3CCC4=CC(=O)CCC4=C3[C@@H](c3ccc(N(C)C)cc3)C[C@@]21C [Mif, mifepristone]
CYC yeast strains
  constitutive expression of β-gal in reference CYC strains: not affected

## C#C[C@]1(O)C=C[C@H]2[C@@H]3CCC4=CC(=O)CC[C@@H]4[C@H]3CC[C@@]21CC [GTD, gestodene]
Human PR [3]; strain W303a
  EC50: 220 nM
Human PR [3]; strain cwp1Δpdr5Δ
  EC50: 0.996 nM
Human AR [2]
  androgenic activity, fold weaker than earlier generation progestins with respect to minimal detection limit concentration: 10 fold
Human AR [2]; EC50
  EC50: 1060 nM and 400 nM

## CC(C)C(=O)Nc1ccc([N+](=O)[O-])c(C(F)(F)F)c1 [Flu, flutamide]
CYC yeast strains
  constitutive expression of β-gal in reference CYC strains: not affected

## C[C@]12CCC3=C4CCC(=O)C=C4CC[C@H]3[C@@H]1CC[C@@]2(O)CC#N [DNG, Dienogest]
Human PR [3]; strain cwp1Δcwp2Δ
  EC50: 6100 nM
Human PR [3]; strain cwp1Δpdr5Δ
  EC50: 860 nM
Human AR [2]; AR-expressing mutant yeast strains
  androgenic activity, fold weaker than earlier generation progestins with respect to minimal detection limit concentration: 100 fold
Human AR [2]; [7]
  EC50: 9780 nM
Human AR [2]; agonist assay, strain cwp1Δpdr5Δ, read-out: EC50
  EC50: 8100 nM
Human AR [2]; agonist assay, strain pdr5Δpdr10Δ, read-out: EC50
  EC50: 2430 nM
Human AR [6]; strain cwp1Δpdr5Δ
  IC50: 38100 nM
Human AR [6]; strain pdr5Δpdr10Δ
  IC50: 30200 nM
CYC yeast strains
  constitutive expression of β-gal in reference CYC strains: Neither DNG nor DRSP inhibited

## C[C@H]1CCC[C@H](O)CCCCCc2cc(O)cc(O)c2C(=O)O1 [Zer, zeranol]
CYC yeast strains; CYC W303a and corresponding CYC mutant strains
  constitutive expression of β-gal in reference CYC strains: not affected

## CCCc1c(-c2ccc(O)cc2)nn(-c2ccc(O)cc2)c1-c1ccc(O)cc1 [PPT, propyl pyrazole triol]
Human ERα
  fold lower EC50 value for ERα than ERβ: 2.5 fold
  fold lower minimum detection limit for ERα than ERβ: 10 fold
Human ERβ [4]; read-out: EC50
  EC50: 13700 nM and 2340 nM

## C[C@]12CCC(=O)C=C1CC[C@@H]1[C@@H]2[C@@H](O)C[C@]2(C=O)[C@@H](C(=O)CO)CC[C@@H]12 [AS, aldosterone]
Human PR [3]; strain cwp1Δpdr5Δ
  EC50: 9700 nM
